Patent US20180360953A1 (priority 2015, published 2018)

System: PA-specific Ab responses
Set-up: species or system mice
Details: mouse, in vivo, ip

Cc1c(-c2ccnn2C)cc(C(=O)NCc2ccc(S(C)(=O)=O)cn2)c(=O)n1-c1cccc(C(F)(F)F)c1 [Alvelestat, alvelestat]
High affinity PA-specific serum IgG1 and IgA Ab responses: promotes high affinity Abs
